Measurements taken from article PMC11436024, “E-Cyanoacrylamides and 5-Imino Pyrrolones against Trypanosoma cruzi: Activity and Induced Mechanisms of Cell Death” (Tropical Medicine and Infectious Disease, 2024).

What was measured:
[1] = system: epimastigote form of T. cruzi; assay: In vitro epimastigote activity assay (alamarBlue); assay type: cell-based, Trypanosoma cruzi strain Y; settings: for IC50: epimastigote form of T. cruzi, 72 h incubation at 26 °C, mean ± standard deviation; for SI (selectivity index, CC50/IC50): against the epimastigote form of T. cruzi, CC50 murine macrophages
Method: This assay is based on the use of alamarBlue. The alamarBlue reagent contains resazurin, which emits blue fluorescence under normal conditions. However, when the parasites are still alive and in contact with cell metabolism, the reagent is reduced to resorufin, which emits pink fluorescence.
In 96-well plates, serial dilutions of each compound were added with parasites at a concentration of 10^6 cells/mL in a final volume of 200 µL. Finally, 10% alamarBlue reagent was added, with 20 µL per well.
After 72 h of incubation at 26 °C, the plate was introduced into the plate reader and the fluorescence (570 nm excitation, 585 nm emission) of each well was determined using the EnSpire Multimode Plate Reader® (PerkinElmer, Thermo Fischer Scientific, Madrid, Spain). Finally, using a non-linear regression analysis in Graphpad Prism 9.0.0. the inhibitory concentration 50 (IC50) was calculated.
Inhibitory and cytotoxic concentrations (IC50, IC90, and CC50) were determined in duplicate on three different days using non-linear regression [Inhibitor] vs. response variable slope (four parameters) using non-linear regression analysis with 95% confidence, using GraphPad Prism 10.1.1 statistical software. The analysis was developed using Tukey’s test, considering significant values of p < 0.05. ANOVA analysis was also performed using GraphPad Prism 10.1.1.

[2] = system: Murine macrophages J774.A1; assay: Cytotoxicity assay (alamarBlue); assay type: cell-based; settings: for IC50 (cytotoxic concentration 50, CC50): 24 h
Method: Murine macrophages J774.A1 strain ATCC #TIB-67, acquired from American Type Culture Collection (ATTC, LGC Promochem, Barcelona, Spain), were cultured in DMEM medium and maintained at 37 °C and 5% CO2. This assay followed the same principle as the previous one, but in this case, macrophages were used instead of parasites to determine the toxicity of the compounds. A total of 50 μL with a concentration of 2 × 10^5 cells/mL was added to each well with serial dilutions of the compounds in 50 μL of RPMI medium. After this, 10% of alamarBlue™ reagent was added and the plate was incubated at 37 °C and 5% CO2 for 24 h. After this time, the fluorescence was read using the EnSpire Multimode Plate Reader® and the cytotoxic concentration 50 (IC50) was calculated. Inhibitory and cytotoxic concentrations (IC50, IC90, and CC50) were determined in duplicate on three different days using non-linear regression [Inhibitor] vs. response variable slope (four parameters) using non-linear regression analysis with 95% confidence, using GraphPad Prism 10.1.1 statistical software. The analysis was developed using Tukey’s test, considering significant values of p < 0.05. ANOVA analysis was also performed using GraphPad Prism 10.1.1.

[3] = system: L3 larvae of Culex pipiens; assay: Larvicidal (in vivo toxicity) assay against mosquito larvae
Method: The L3 larvae from Culex pipiens, used in the cytotoxicity assay, were cultured at the Laboratorio de Entomología Médica of the Instituto Universitario de Enfermedades Tropicales y Salud Pública de Canarias in Tenerife, Spain.
For this purpose, 3 mL of sterile water with food for 48 h was added to 24-well plates, following WHO guidelines of necessary nutrients. In each well, one L3 larva of Culex pipiens was added, together with different concentrations of the compounds to be tested (IC90 and two times IC90). In addition, negative controls, without treatment and with the maximum amount of DMSO added in the treatments, and positive controls, benznidazole as the reference treatment and triton, previously reported to be toxic to larvae, were added. All experiments were performed in duplicate and repeated on 3 different days, observing larval viability at different times (1, 3, 12, 24, and 48 h after the start of treatment).

[4] = system: Trypanosoma cruzi parasites; assay: Induction of cell death mechanisms (ATP, SYTOX Green, JC-1, Hoechst/PI, CellROX); assay type: cell-based; settings: parasites incubated 24 h with the IC90 of the compounds
Method: To observe these events, parasites were incubated for 24 h with the IC90 of the compounds. After that, the plate was centrifuged at 3000 rpm at 4 °C for 10 min to remove the supernatant. The pellet was then resuspended in buffer and the different kits were added following the manufacturer’s instructions. CellTiter-Glo® Luminescent Cell Viability Assay was used to determine the ATP levels of the parasitic cells. This kit contains luciferin upon contact with cell metabolism, oxidises to oxyluciferin and emitting luminescence. The procedure was as follows: after 24 h of incubation and centrifugation, the pellet was resuspended in 25 μL of buffer and mixed with 25 μL of CellTiter-Glo® in the dark, shaking for 2 min. Then, after 15 min of incubation at room temperature, the luminescence was read in the EnSpire Multimode Plate Reader® [20]. In PCD, there is an alteration in the permeability of the plasma membrane, but the cell structure is maintained. The SYTOX™ Green Stain (Thermo Fischer Scientific, Madrid, Spain) only penetrates cells with increased plasma permeability. Once inside the cell, it will bind to the DNA and emit green fluorescence. After incubation and centrifugation, the pellet was resuspended in 50 μL of buffer and the reagent was added at a concentration of 1 μM. […]

[5] = system: amastigote form of T. cruzi; assay: In vitro amastigote activity assay (alamarBlue, intracellular parasites in macrophages); assay type: cell-based, Trypanosoma cruzi; settings: for IC50: Trypanosoma cruzi, Macrophage, amastigote form of T. cruzi in macrophages, 24 h with compound at 37 °C, mean ± standard deviation; for SI (selectivity index, CC50/IC50): against the amastigote form of T. cruzi, CC50 murine macrophages
Method: To perform the assay against the intracellular form of the parasite, the same colorimetric method based on the alamarBlue was developed. To produce the internalization of the parasites, an excess of epimastigote forms were added (10^5:10^4 parasites/macrophages in 100 µL of DMEM) to a 96-well plate for 24 h at 37 °C. Then, the wells were washed 3 times to eliminate the non-internalized parasites, and the serial dilutions of the compounds were added and dissolved in DMEM medium. After another incubation of 24 h at 37 °C, the drugs were eliminated and the cells were lysed with 0.05% SDS for 30 s. After adding LIT in a final volume of 200 µL and 10% of alamarBlue™ reagent, the plates were incubated for 96 h to promote the externalization of the parasites. Finally, the fluorescence was read using the EnSpire Multimode Plate Reader® and the inhibitory concentration 50 (IC50) was calculated. Inhibitory and cytotoxic concentrations (IC50, IC90, and CC50) were determined in duplicate on three different days using non-linear regression [Inhibitor] vs. response variable slope (four parameters) using non-linear regression analysis with 95% confidence, using GraphPad Prism 10.1.1 statistical software. The analysis was developed using Tukey’s test, considering significant values of p < 0.05. ANOVA analysis was also performed using GraphPad Prism 10.1.1.

[6] = murine macrophages, mean ± standard deviation
[7] = 2IC90 (two times IC90) of compound, 1 h
[8] = 2IC90 (two times IC90) of compound, 3 h
[9] = 2IC90 (two times IC90) of compound, 12 h
[10] = 2IC90 (two times IC90) of compound, 24 h
[11] = 2IC90 (two times IC90) of compound, 48 h

Compound: N#C/C=C/C(=O)Nc1ccccc1 [A]
- IC50 ([1]; Trypanosoma cruzi, 72 h): 18.7 ± 1.9 µM
- SI (selectivity index, CC50/IC50) [1]: 5.1
- IC50 (cytotoxic concentration 50, CC50) [2, 6]: 94.78 ± 23.11 µM

Compound: N=C1C=CC(=O)N1c1ccccc1 [B]
- larval viability [3, 7]: Alive
- larval viability [3, 8]: Alive
- larval viability [3, 9]: Alive
- larval viability [3, 10]: Alive
- larval viability [3, 11]: Alive
- larval viability ([3]; IC90 of compound, 1 h): Alive
- larval viability ([3]; IC90 of compound, 3 h): Alive
- larval viability ([3]; IC90 of compound, 12 h): Alive
- larval viability ([3]; IC90 of compound, 24 h): Alive
- larval viability ([3]; IC90 of compound, 48 h): Alive
- IC50 ([1]; Trypanosoma cruzi, 72 h): < 10 µM
- IC50 [1]: 6.91 ± 1.33 µM
- IC50 (cytotoxic concentration 50, CC50) [2, 6]: 118.07 ± 11.90 µM
- type of cell death produced [4]: late phase of this type of cell death
- IC50 [5]: 10.8 ± 2.11 µM
- SI (selectivity index, CC50/IC50) [5]: 10.9

Compound: O=C(Cn1ccnc1[N+](=O)[O-])NCc1ccccc1 [Benznidazole, reference compound]
- larval viability [3, 7]: Alive
- larval viability [3, 8]: Alive
- larval viability [3, 9]: Alive
- larval viability [3, 10]: Alive
- larval viability [3, 11]: Alive
- larval viability ([3]; IC90 of compound, 1 h): Alive
- larval viability ([3]; IC90 of compound, 3 h): Alive
- larval viability ([3]; IC90 of compound, 12 h): Alive
- larval viability ([3]; IC90 of compound, 24 h): Alive
- larval viability ([3]; IC90 of compound, 48 h): Alive
- IC50 ([1]; Trypanosoma cruzi, 72 h): 6.92 ± 0.77 µM
- SI (selectivity index, CC50/IC50) [1]: 57.8
- IC50 (cytotoxic concentration 50, CC50) [2, 6]: 399.91 ± 1.40 µM
- IC50 [5]: 2.67 ± 0.39 µM
- SI (selectivity index, CC50/IC50) [5]: 149.8

Compound: N#C/C=C/C(=O)NCc1ccccc1 [C]
- larval viability [3, 7]: Alive
- larval viability [3, 8]: Alive
- larval viability [3, 9]: Alive
- larval viability [3, 10]: Alive
- larval viability [3, 11]: Alive
- larval viability ([3]; IC90 of compound, 1 h): Alive
- larval viability ([3]; IC90 of compound, 3 h): Alive
- larval viability ([3]; IC90 of compound, 12 h): Alive
- larval viability ([3]; IC90 of compound, 24 h): Alive
- larval viability ([3]; IC90 of compound, 48 h): Alive
- IC50 ([1]; Trypanosoma cruzi, 72 h): 18.8 ± 2.03 µM
- IC50 (cytotoxic concentration 50, CC50) [2, 6]: 208.01 ± 13.44 µM
- IC50 [5]: 24.1 ± 6.22 µM
- SI (selectivity index, CC50/IC50) [5]: 8.6

Compound: N=C1C=CC(=O)N1Cc1ccccc1 [D]
- IC50 ([1]; Trypanosoma cruzi, 72 h): 12.4 ± 1.49 µM
- SI (selectivity index, CC50/IC50) [1]: 6.9
- IC50 (cytotoxic concentration 50, CC50) ([2]; mouse): 85.32 ± 3.71 µM

Compound: COc1ccc(CNC(=O)/C=C/C#N)cc1 [E]
- IC50 ([1]; Trypanosoma cruzi, 72 h): > 100 µM
- SI (selectivity index, CC50/IC50) [1]: <3.2
- IC50 (cytotoxic concentration 50, CC50) [2, 6]: 319.61 ± 60.22 µM

Compound: COc1ccc(CN2C(=N)C=CC2=O)cc1 [F]
- SI (selectivity index, CC50/IC50) [1]: 0.8
- IC50 (cytotoxic concentration 50, CC50) ([2]; mouse): 2.82 ± 1.39 µM

Compound: COc1ccc(NC(=O)/C=C/C#N)cc1 [G]
- larval viability [3, 7]: Alive
- larval viability [3, 8]: Alive
- larval viability [3, 9]: Alive
- larval viability [3, 10]: Alive
- larval viability [3, 11]: Alive
- larval viability ([3]; IC90 of compound, 1 h): Alive
- larval viability ([3]; IC90 of compound, 3 h): Alive
- larval viability ([3]; IC90 of compound, 12 h): Alive
- larval viability ([3]; IC90 of compound, 24 h): Alive
- larval viability ([3]; IC90 of compound, 48 h): Alive
- IC50 ([1]; Trypanosoma cruzi, 72 h): 20.7 ± 2.66 µM
- IC50 (cytotoxic concentration 50, CC50) [2, 6]: 266.62 ± 42.48 µM
- IC50 [5]: 10.6 ± 3.05 µM
- SI (selectivity index, CC50/IC50) [5]: 25.2

Compound: COc1ccc(N2C(=N)C=CC2=O)cc1 [H]
- SI (selectivity index, CC50/IC50) [1]: 0.9
- toxicity of Z isomer relative to E isomer (times more toxic) ([2]; G–H isomer pair, murine macrophages): 100
- IC50 (cytotoxic concentration 50, CC50) [2, 6]: 2.42 ± 1.58 µM

Compound: Triton [reference compound]
- larval viability ([3]; 0.01%, 1 h): Alive
- larval viability ([3]; 0.01%, 3 h): Alive
- larval viability ([3]; 0.01%, 12 h): Dead
- larval viability ([3]; 0.01%, 24 h): Dead
- larval viability ([3]; 0.01%, 48 h): Dead
- larval viability ([3]; 0.5%, 1 h): Alive
- larval viability ([3]; 0.5%, 3 h): Dead
- larval viability ([3]; 0.5%, 12 h): Dead
- larval viability ([3]; 0.5%, 24 h): Dead
- larval viability ([3]; 0.5%, 48 h): Dead
- larval viability ([3]; 1%, 1 h): Dead
- larval viability ([3]; 1%, 3 h): Dead
- larval viability ([3]; 1%, 12 h): Dead
- larval viability ([3]; 1%, 24 h): Dead
- larval viability ([3]; 1%, 48 h): Dead
